According to ChEMBL document CHEMBL6182925 (J Med Chem, 2025):
pEC50, pIC50: −log10 of the molar value. Converted amounts (≈) assume the structure as drawn. Blank lines part the entries; values can stand above or below the compound they belong to.

Tests used:
[1] = target: Cytochrome P450 3A4 (Homo sapiens, UniProt P08684); assay: Inhibition of CYP3A4 (unknown origin); assay type: ADME
[2] = Kinetic solubility of compound at pH 4.5; assay type: physicochemical; conditions: buffer, read-out: Kinetic_solubility
[3] = tested on: BaF3; assay: cells; conditions: Mus musculus, BaF3, 72 h
[4] = Kinetic solubility of compound at pH 2; assay type: physicochemical; conditions: buffer, read-out: Kinetic_solubility
[5] = cells; conditions: Mus musculus, BaF3/TRP-Met, 72 h
[6] = target: 5-hydroxytryptamine receptor 1B (Homo sapiens) (UniProt P28222); assay: Inhibition of 5-HT1B receptor (unknown origin) at 10 uM by CEREP analysis relative to control
Sequence of 5-hydroxytryptamine receptor 1B (Homo sapiens) (P28222 whole entry): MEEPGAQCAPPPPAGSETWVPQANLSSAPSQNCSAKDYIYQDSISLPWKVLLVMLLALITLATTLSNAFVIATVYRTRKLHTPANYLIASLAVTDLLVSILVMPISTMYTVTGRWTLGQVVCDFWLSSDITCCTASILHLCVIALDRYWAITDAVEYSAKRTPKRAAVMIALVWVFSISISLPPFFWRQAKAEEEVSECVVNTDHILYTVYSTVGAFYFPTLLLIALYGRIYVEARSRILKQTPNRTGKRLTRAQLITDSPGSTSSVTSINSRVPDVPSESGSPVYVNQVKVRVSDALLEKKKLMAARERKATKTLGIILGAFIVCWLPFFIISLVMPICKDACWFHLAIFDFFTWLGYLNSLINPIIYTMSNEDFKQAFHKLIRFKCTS

[7] = target: hERG (Homo sapiens, UniProt Q12809); assay: Inhibition of hERG at 10 uM by CEREP analysis relative to control; assay type: toxicity
Sequence of hERG (Q12809 whole entry): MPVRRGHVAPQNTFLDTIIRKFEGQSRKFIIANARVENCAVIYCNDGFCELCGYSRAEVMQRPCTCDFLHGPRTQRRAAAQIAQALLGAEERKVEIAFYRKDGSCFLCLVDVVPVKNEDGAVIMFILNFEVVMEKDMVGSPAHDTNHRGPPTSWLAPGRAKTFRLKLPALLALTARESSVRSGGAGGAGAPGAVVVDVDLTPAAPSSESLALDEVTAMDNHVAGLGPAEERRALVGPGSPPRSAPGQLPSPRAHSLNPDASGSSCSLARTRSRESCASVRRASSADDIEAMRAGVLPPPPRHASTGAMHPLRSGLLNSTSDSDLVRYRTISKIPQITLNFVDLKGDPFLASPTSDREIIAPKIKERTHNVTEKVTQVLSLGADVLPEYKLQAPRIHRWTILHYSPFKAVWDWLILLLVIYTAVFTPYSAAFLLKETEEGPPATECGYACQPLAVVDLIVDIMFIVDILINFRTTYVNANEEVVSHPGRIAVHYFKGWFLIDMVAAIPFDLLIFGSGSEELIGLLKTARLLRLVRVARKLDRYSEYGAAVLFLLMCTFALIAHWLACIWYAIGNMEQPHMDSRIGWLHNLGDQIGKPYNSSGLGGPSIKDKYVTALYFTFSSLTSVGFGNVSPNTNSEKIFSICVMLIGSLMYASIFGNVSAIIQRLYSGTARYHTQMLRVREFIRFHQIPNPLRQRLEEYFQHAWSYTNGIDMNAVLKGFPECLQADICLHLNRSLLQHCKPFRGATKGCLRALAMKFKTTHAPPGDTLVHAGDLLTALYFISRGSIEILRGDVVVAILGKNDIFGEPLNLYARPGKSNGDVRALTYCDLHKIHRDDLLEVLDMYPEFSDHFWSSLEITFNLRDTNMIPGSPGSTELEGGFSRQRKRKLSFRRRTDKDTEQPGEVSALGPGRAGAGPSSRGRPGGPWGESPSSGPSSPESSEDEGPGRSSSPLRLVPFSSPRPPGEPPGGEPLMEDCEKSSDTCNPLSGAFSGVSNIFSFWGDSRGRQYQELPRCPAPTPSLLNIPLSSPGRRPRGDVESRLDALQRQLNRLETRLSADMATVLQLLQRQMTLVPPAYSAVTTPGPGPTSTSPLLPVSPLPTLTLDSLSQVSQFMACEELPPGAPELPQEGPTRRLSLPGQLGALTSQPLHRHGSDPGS

[8] = Oral bioavailability in rat; assay type: ADME, organism-based; conditions: in vivo
[9] = target: 5-hydroxytryptamine receptor 2B (Homo sapiens) (UniProt P41595); assay: Inhibition of 5-HT2B receptor (unknown origin) at 10 uM by CEREP analysis relative to control
[10] = target: 3',5'-cyclic-AMP phosphodiesterase 4D (Homo sapiens) (UniProt Q08499); assay: Inhibition of PDE4D2 (unknown origin) at 10 uM by CEREP analysis relative to control
Sequence of 3',5'-cyclic-AMP phosphodiesterase 4D (Homo sapiens) (Q08499 whole entry): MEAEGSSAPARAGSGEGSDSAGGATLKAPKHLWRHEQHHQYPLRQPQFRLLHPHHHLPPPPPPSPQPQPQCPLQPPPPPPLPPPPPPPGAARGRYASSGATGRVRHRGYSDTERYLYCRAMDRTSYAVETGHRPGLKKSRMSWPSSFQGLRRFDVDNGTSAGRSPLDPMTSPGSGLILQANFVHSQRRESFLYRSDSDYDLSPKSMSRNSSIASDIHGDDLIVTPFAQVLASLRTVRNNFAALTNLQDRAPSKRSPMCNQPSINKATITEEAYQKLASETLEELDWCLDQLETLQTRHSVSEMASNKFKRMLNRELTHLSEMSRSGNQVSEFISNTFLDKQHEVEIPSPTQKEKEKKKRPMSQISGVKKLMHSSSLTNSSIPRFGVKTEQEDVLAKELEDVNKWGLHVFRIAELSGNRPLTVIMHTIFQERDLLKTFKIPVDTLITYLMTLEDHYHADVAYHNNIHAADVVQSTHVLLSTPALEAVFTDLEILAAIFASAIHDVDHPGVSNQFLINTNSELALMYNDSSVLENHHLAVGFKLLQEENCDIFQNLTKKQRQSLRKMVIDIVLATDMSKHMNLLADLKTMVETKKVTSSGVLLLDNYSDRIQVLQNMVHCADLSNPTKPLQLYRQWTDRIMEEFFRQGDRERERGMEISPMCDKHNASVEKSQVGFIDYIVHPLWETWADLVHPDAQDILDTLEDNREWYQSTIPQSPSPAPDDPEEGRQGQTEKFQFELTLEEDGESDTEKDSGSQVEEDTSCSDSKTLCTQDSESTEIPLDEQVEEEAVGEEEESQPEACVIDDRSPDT

[11] = target: cGMP-inhibited 3',5'-cyclic phosphodiesterase 3A (Homo sapiens) (UniProt Q14432); assay: Inhibition of PDE3A (unknown origin) at 10 uM by CEREP analysis relative to control
Sequence of cGMP-inhibited 3',5'-cyclic phosphodiesterase 3A (Homo sapiens) (Q14432 whole entry): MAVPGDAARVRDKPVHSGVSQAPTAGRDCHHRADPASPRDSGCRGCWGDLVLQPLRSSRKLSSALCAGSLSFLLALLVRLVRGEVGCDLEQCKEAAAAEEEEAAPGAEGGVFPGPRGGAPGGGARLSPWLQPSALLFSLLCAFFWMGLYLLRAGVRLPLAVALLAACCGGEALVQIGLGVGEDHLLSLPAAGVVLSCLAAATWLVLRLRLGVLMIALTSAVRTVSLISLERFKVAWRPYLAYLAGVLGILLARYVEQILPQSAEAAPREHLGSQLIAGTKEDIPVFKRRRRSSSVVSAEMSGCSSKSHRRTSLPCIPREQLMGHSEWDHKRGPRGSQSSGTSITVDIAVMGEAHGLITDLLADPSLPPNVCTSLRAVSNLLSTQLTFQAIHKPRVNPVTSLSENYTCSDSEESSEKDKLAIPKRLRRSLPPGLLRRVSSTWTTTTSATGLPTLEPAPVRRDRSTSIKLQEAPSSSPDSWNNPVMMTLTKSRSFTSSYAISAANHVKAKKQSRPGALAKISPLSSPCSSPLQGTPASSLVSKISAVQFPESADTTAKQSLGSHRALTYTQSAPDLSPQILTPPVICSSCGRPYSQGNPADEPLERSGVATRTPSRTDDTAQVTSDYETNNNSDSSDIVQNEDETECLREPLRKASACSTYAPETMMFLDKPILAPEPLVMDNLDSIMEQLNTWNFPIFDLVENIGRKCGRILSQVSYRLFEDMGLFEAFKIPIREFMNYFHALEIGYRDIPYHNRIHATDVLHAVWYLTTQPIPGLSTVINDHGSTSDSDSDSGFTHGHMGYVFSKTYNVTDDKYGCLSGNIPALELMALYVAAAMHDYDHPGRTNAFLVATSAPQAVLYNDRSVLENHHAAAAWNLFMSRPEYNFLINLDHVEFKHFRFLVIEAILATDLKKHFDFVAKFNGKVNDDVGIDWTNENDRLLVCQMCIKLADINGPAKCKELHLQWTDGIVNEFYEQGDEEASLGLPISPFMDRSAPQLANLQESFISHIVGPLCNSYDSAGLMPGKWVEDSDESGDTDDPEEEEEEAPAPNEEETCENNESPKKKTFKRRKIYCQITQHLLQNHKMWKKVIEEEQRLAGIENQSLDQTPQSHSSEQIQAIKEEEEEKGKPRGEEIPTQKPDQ

[12] = species: Homo sapiens; assay: Inhibition of sodium channel site 2 (unknown origin) at 10 uM by CEREP analysis relative to control
[13] = Oral bioavailability in mouse; assay type: ADME, organism-based; conditions: in vivo
[14] = target: Sodium-dependent serotonin transporter (Homo sapiens) (UniProt P31645); assay: Inhibition of SERT (unknown origin) at 10 uM by CEREP analysis relative to control
[15] = target: L-type calcium channel (Homo sapiens, UniProt O60840+Q01668+Q13698+Q13936); assay: Inhibition of Calcium channel L-type (unknown origin) at 10 uM by CEREP analysis relative to control; assay type: protein assay
[16] = target: T1, Muscarinic acetylcholine receptor M2 (Homo sapiens) (UniProt P08172); assay: Inhibition of muscarinic M2 receptor (unknown origin) at 10 uM by CEREP analysis relative to control
T1 sequence (whole entry): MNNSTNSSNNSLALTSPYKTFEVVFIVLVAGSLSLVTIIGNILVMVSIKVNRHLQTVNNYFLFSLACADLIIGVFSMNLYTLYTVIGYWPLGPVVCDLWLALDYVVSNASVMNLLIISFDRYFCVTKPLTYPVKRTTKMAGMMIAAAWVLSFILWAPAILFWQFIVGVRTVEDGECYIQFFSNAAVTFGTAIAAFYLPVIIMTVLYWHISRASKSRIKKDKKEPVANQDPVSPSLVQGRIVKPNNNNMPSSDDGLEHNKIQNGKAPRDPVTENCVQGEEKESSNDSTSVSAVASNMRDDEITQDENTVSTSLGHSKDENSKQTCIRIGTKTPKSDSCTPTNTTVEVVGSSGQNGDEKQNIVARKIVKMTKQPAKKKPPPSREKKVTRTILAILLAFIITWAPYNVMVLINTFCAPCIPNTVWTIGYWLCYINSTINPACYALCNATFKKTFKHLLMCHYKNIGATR

[17] = target: T2, Alpha-2A adrenergic receptor (Homo sapiens) (UniProt P08913); assay: Inhibition of alpha 2A adrenergic receptor (unknown origin) at 10 uM by CEREP analysis relative to control
T2 sequence (whole entry): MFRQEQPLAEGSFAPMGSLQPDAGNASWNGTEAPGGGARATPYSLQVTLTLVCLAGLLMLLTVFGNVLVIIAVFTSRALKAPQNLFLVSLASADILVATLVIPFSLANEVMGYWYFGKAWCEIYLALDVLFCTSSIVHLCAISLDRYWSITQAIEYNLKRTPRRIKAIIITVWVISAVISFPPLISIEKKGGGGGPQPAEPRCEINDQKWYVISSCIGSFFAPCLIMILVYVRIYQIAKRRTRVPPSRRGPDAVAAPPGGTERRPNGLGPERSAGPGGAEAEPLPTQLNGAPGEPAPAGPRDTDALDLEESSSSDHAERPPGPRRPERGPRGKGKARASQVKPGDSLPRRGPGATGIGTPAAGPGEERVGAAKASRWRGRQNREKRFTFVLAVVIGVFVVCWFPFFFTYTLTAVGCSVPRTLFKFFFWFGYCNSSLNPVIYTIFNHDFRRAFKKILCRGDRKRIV

[18] = Clearance in mouse; assay type: ADME, organism-based; conditions: in vivo
[19] = tested on: BaF3; assay: cells; conditions: Mus musculus, BaF3, 72 h; remark: listed apart in the source
[20] = tested on: BaF3; assay: cells; conditions: Mus musculus, BaF3, 72 h; remark: listed apart in the source
[21] = tested on: BaF3; assay: cells; conditions: Mus musculus, BaF3, 72 h; remark: listed apart in the source
[22] = tested on: BaF3; assay: cells; conditions: Mus musculus, BaF3, 72 h; remark: listed apart in the source
[23] = tested on: BaF3; assay: cells; conditions: Mus musculus, BaF3, 72 h; remark: listed apart in the source
[24] = tested on: BaF3; assay: cells; conditions: Mus musculus, BaF3, 72 h; remark: listed apart in the source
[25] = tested on: BaF3; assay: cells; conditions: Mus musculus, BaF3, 72 h; remark: listed apart in the source
[26] = tested on: BaF3; assay: cells; conditions: Mus musculus, BaF3, 72 h; remark: listed apart in the source
[27] = tested on: BaF3; assay: cells; conditions: Mus musculus, BaF3, 72 h; remark: listed apart in the source
[28] = tested on: BaF3; assay: cells; conditions: Mus musculus, BaF3, 72 h; remark: listed apart in the source
[29] = tested on: BaF3; assay: cells; conditions: Mus musculus, BaF3, 72 h; remark: listed apart in the source
[30] = tested on: BaF3; assay: cells; conditions: Mus musculus, BaF3, 72 h; remark: listed apart in the source
[31] = tested on: BaF3; assay: cells; conditions: Mus musculus, BaF3, 72 h; remark: listed apart in the source
[32] = target: Tyrosine-protein kinase Mer (Homo sapiens, UniProt Q12866); assay: Inhibition of MERTK (unknown origin) by fluorescence-based microfluidic mobility shift assay
[33] = target: Tyrosine-protein kinase receptor UFO (Homo sapiens, UniProt P30530); assay: Inhibition of AXL (unknown origin) by fluorescence-based microfluidic mobility shift assay
[34] = target: Vascular endothelial growth factor receptor 2 (Homo sapiens, UniProt P35968); assay: Inhibition of KDR (unknown origin) by fluorescence-based microfluidic mobility shift assay
Sequence of Vascular endothelial growth factor receptor 2 (P35968 whole entry): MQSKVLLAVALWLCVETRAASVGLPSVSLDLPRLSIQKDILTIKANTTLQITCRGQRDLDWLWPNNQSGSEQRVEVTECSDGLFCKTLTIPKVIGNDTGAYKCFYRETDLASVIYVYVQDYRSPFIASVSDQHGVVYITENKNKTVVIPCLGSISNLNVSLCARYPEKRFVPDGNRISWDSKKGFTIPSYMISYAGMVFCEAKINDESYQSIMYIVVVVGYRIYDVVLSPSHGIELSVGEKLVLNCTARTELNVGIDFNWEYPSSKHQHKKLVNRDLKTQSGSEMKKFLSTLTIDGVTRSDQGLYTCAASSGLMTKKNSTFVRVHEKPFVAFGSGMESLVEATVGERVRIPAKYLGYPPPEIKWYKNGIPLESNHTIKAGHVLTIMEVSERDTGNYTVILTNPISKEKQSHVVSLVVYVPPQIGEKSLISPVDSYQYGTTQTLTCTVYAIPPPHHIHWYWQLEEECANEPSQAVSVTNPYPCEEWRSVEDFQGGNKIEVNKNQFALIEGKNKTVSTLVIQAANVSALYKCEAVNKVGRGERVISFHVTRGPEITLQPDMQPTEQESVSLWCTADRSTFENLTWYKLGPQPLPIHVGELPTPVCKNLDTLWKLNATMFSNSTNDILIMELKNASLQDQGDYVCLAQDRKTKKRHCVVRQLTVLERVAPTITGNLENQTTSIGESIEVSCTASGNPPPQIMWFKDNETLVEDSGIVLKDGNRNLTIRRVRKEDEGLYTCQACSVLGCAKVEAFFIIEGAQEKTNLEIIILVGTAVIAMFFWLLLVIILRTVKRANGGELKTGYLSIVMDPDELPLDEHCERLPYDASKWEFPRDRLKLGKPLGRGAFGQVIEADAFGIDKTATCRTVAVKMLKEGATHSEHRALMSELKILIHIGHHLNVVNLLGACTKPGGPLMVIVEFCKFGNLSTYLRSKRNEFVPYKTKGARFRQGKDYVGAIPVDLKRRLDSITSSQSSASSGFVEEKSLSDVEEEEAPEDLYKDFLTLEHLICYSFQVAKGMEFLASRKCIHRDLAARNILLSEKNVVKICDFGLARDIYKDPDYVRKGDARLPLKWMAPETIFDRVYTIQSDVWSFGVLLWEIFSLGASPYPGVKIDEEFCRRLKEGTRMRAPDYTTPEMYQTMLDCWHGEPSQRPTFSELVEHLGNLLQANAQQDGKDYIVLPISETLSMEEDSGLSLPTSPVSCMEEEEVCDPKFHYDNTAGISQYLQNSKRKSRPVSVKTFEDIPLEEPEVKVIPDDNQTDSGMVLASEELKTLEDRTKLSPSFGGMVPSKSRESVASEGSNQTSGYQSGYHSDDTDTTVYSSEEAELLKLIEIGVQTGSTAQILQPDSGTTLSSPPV

[35] = target: Hepatocyte growth factor receptor (Homo sapiens, UniProt P08581, D1228N); assay: Inhibition of N-terminal GST-tagged recombinant human c-MET D1228N mutant (956 to end residues) extracted from baculovirus infected Sf9 cells using 5-FAM-KKKKEEIYFFF-CONH2 as substrate preincubated for 30 mins followed by ATP addition measured after 60 mins by fluorescence-based microfluidic mobility shift assay
[36] = target: Hepatocyte growth factor receptor (Homo sapiens, UniProt P08581); assay: Inhibition of N-terminal GST-tagged wild-type human c-MET (956 to 1390 residues) extracted from baculovirus infected Sf21 cells using 5-FAM-KKKKEEIYFFF-CONH2 as substrate preincubated for 30 mins followed by ATP addition measured after 60 mins by fluorescence-based microfluidic mobility shift assay

pIC50 [1]: 6.52
Compound: COc1cc2nccc(Oc3ccc(NC(=O)c4ccncc4OC)cc3F)c2cc1OC

solubility kinetic [2]: 4.4 µM (≈ 2.17 µg/mL)
pEC50 [3]: 7.59
solubility kinetic [4]: 288 µM (≈ 142 µg/mL)
pEC50 [5]: 7.37
Compound: COc1cc2nccc(Oc3c(F)cc(NC(=O)c4cnccc4OC4CC4)cc3F)c2cc1OC

solubility kinetic [2]: 5.2 µM (≈ 2.61 µg/mL)
solubility kinetic [4]: 21 µM (≈ 10.5 µg/mL)
Compound: COc1cc2nccc(Oc3ccc(NC(=O)C4(C(=O)Nc5ccc(F)cc5)CC4)cc3)c2cc1OC [CABOZANTINIB]

solubility kinetic [2]: 5.4 µM (≈ 2.52 µg/mL)
pEC50 [3]: 7.25
solubility kinetic [4]: 205 µM (≈ 95.8 µg/mL)
pEC50 [5]: 6.91
Compound: COc1cc2nccc(Oc3c(F)cc(NC(=O)c4cnccc4OC)cc3F)c2cc1OC

solubility kinetic [2]: 11 µM (≈ 5.47 µg/mL)
inhibition [6]: -8%
pEC50 [3]: 7.51
bioavailability [8]: ~100%
inhibition [9]: 18%
inhibition [10]: 90%
solubility kinetic [4]: 315 µM (≈ 157 µg/mL)
inhibition [11]: 98%
inhibition [12]: 30%
pEC50 [5]: 7.44
bioavailability [13]: ~100%
inhibition [14]: 7%
inhibition at 10 µM [15]: -3%
inhibition [16]: 12%
inhibition [17]: 8%
Compound: COc1cc2c(Oc3c(F)cc(NC(=O)c4cnccc4OC)cc3F)ccnc2cc1OCCO
inhibition at 10 µM [7]: 3%

solubility kinetic [2]: 208 µM (≈ 106 µg/mL)
inhibition [6]: 54%
pEC50 [3]: 7.39
inhibition [9]: 58%
inhibition [10]: 11%
solubility kinetic [4]: 276 µM (≈ 141 µg/mL)
inhibition [11]: -2%
inhibition [12]: 89%
clearance [18]: 43 mL/min/kg
pEC50 [5]: 7.23
bioavailability [13]: < 5%
inhibition [14]: 101%
inhibition at 10 µM [15]: 41%
inhibition [16]: 3%
inhibition [17]: 54%
Compound: CNCCOc1cc2nccc(Oc3c(F)cc(NC(=O)c4cnccc4OC)cc3F)c2cc1OC
inhibition at 10 µM [7]: 70%

solubility kinetic [2]: 48 µM (≈ 23.6 µg/mL)
pEC50 [19]: 6.91
pEC50 [20]: 5.55
pEC50 [21]: 5.52
pEC50 [22]: 5.47
pEC50 [23]: 7.62
pEC50 [3]: 5.72
pEC50 [24]: 8.38
pEC50 [25]: 5.74
pEC50 [26]: 8.64
solubility kinetic [4]: 295 µM (≈ 145 µg/mL)
pEC50 [27]: 9.22
pEC50 [5]: 8.19
pEC50 [28]: 6.91
pEC50 [29]: 5.66
pEC50 [30]: 6.74
pEC50 [31]: 5.46
Compound: CN1CCC(COc2cnc(-c3cccc(Cn4nc(-c5cccc(C#N)c5)ccc4=O)c3)nc2)CC1 [TEPOTINIB]

solubility kinetic [2]: 24 µM (≈ 10.8 µg/mL)
pEC50 [3]: 6.76
pIC50 [1]: < 4.30
solubility kinetic [4]: 252 µM (≈ 113 µg/mL)
pEC50 [5]: 6.42
Compound: COc1cc2nccc(Oc3ccc(NC(=O)c4cnccc4OC)cc3F)c2cc1OC

solubility kinetic [2]: 0.08 µM (≈ 0.0442 µg/mL)
pEC50 [19]: 6.69
pEC50 [20]: 7.74
pEC50 [21]: 6.89
pEC50 [22]: 7.59
pEC50 [23]: 6.29
pEC50 [3]: 6.94
pEC50 [24]: 6.60
pEC50 [25]: 7.04
pEC50 [26]: 7.68
solubility kinetic [4]: 0.4 µM (≈ 0.221 µg/mL)
pEC50 [27]: 8.11
pIC50 [32]: 9.30
pEC50 [5]: 7.60
pIC50 [33]: 9.30
pIC50 [34]: 6.47
pEC50 [28]: 6.08
pEC50 [29]: 7.64
pEC50 [30]: 7.19
pEC50 [31]: 6.59
Compound: Cc1ccc(C(=O)Nc2ccc(Oc3cc4cnn(C)c4cc3-c3cn[nH]c3)c(F)c2)c(=O)n1-c1ccc(F)cc1 [MERESTINIB]

pEC50 [19]: 7.14
pEC50 [20]: < 5.00
pEC50 [21]: < 5.00
pEC50 [22]: < 5.00
pEC50 [23]: 8.08
pEC50 [24]: 8.82
pEC50 [25]: 5.13
pEC50 [26]: 9.30
pEC50 [27]: 9.30
pEC50 [28]: 7.13
pEC50 [29]: < 5.00
pEC50 [30]: 7.89
pEC50 [31]: < 5.00
Compound: C[C@@H](c1ccc2nccn2c1)n1nnc2ncc(-c3cnn(C)c3)nc21 [SAVOLITINIB]

solubility kinetic [2]: 0.12 µM (≈ 0.0744 µg/mL)
solubility kinetic [4]: 4 µM (≈ 2.48 µg/mL)
pIC50 [34]: 9.30
Compound: COCCNCc1ccc(-c2cc3nccc(Oc4ccc(NC(=S)NC(=O)Cc5ccc(F)cc5)cc4F)c3s2)nc1 [GLESATINIB]

Compound: COc1cc2nccc(Oc3ccc(NC(=O)c4ccccc4OC)cc3F)c2cc1OC
solubility kinetic [2]: 1 µM (≈ 0.448 µg/mL)
pEC50 [3]: 6.10
pIC50 [35]: 8.66
pIC50 [36]: 8.36
solubility kinetic [4]: 6.1 µM (≈ 2.74 µg/mL)
pEC50 [5]: 5.88
pIC50 [34]: 6.60

solubility kinetic [2]: 8.1 µM (≈ 4.24 µg/mL)
inhibition [6]: 22%
pEC50 [3]: 7.85
inhibition [9]: 69%
inhibition [10]: 96%
solubility kinetic [4]: 312 µM (≈ 163 µg/mL)
inhibition [11]: 99%
inhibition [12]: 57%
clearance [18]: 5.4 mL/min/kg
pEC50 [5]: 7.74
bioavailability [13]: ~100%
inhibition [14]: 4%
inhibition at 10 µM [15]: 50%
inhibition [16]: 81%
inhibition [17]: -1%
Compound: COc1cc2c(Oc3c(F)cc(NC(=O)c4cnccc4OC4CC4)cc3F)ccnc2cc1OCCO
inhibition at 10 µM [7]: 13%
